Species: Rattus norvegicus
Format: toxicity, organism-based, Sprague-Dawley
Settings: in vivo, ip, 24 h, route intraperitoneal, time 1 day, […]; for ABSOLUTE EOSINOPHIL / ABSOLUTE LYMPHOCYTE / ABSOLUTE MONOCYTE / ABSOLUTE SEGMENTED NEUTROPHIL / BASOPHIL / EOSINOPHIL / ERYTHROCYTE COUNT / HEMATOCRIT / HEMOGLOBIN / LEUKOCYTE COUNT / LYMPHOCYTE / MEAN CORPUSCULAR HEMOGLOBIN / MEAN CORPUSCULAR HEMOGLOBIN CONCENTRATION / MEAN CORPUSCULAR VOLUME / MONOCYTE / NEUTROPHIL / NUCLEATED RED BLOOD CELLS / PLATELET COUNT: tissue Blood; for ALANINE AMINOTRANSFERASE / ALBUMIN / ALKALINE PHOSPHATASE / ASPARTATE AMINOTRANSFERASE / BLOOD UREA NITROGEN / CARBON DIOXIDE / CHLORIDE / CHOLESTEROL / CREATININE / GLUCOSE / LACTATE DEHYDROGENASE / LIPASE / PHOSPHORUS / POTASSIUM / SODIUM / TOTAL BILIRUBIN / TOTAL PROTEIN / URIC ACID: tissue Plasma
[1] = 0 mg/kg, vehicle control, dose level Control

Description: DrugMatrix - Regimen: Single

## ClC(Cl)=C(Cl)C(Cl)=C(Cl)Cl [HEXACHLOROBUTADIENE]
[1]
  ABSOLUTE EOSINOPHIL: 212 CELLS/uL
  ABSOLUTE LYMPHOCYTE: 10220.17 CELLS/uL
  ABSOLUTE MONOCYTE: 368.83 CELLS/uL
  ABSOLUTE SEGMENTED NEUTROPHIL: 1749 CELLS/uL
  BASOPHIL: 0%
  EOSINOPHIL: 1.67%
  ERYTHROCYTE COUNT: 5.74 x10E6/uL
  HEMATOCRIT: 35.72%
  HEMOGLOBIN: 13 G/DL
  LEUKOCYTE COUNT: 12.55 x10E3/uL
  LYMPHOCYTE: 81.83%
  MEAN CORPUSCULAR HEMOGLOBIN: 22.65 pg
  MEAN CORPUSCULAR HEMOGLOBIN CONCENTRATION: 36.42 G/DL
  MEAN CORPUSCULAR VOLUME: 62.18 fL
  MONOCYTE: 2.83%
  NEUTROPHIL: 13.67%
  NUCLEATED RED BLOOD CELLS: 0 /100WBC
  PLATELET COUNT: 841.83 x10E3/uL
  ALANINE AMINOTRANSFERASE: 54 u/L
  ALBUMIN: 4.15 G/DL
  ALKALINE PHOSPHATASE: 357.33 u/L
  ASPARTATE AMINOTRANSFERASE: 116 u/L
  BLOOD UREA NITROGEN: 14.17 mg/dL
  CARBON DIOXIDE: 34.5 mmol/L
  CHLORIDE: 99.17 MEQ/L
  CHOLESTEROL: 79.17 mg/dL
  CREATININE: 0.2 mg/dL
  GLUCOSE: 143.33 mg/dL
  LACTATE DEHYDROGENASE: 187.17 u/L
  LIPASE: 8.83 u/L
  PHOSPHORUS: 11.4 mg/dL
  POTASSIUM: 6.36 MEQ/L
  SODIUM: 143.32 MEQ/L
  TOTAL BILIRUBIN: 0.23 mg/dL
  TOTAL PROTEIN: 6.22 G/DL
  URIC ACID: 1.25 mg/dL
50 mg/kg, dose level High
  ABSOLUTE EOSINOPHIL: 167 CELLS/uL
  ABSOLUTE LYMPHOCYTE: 9489 CELLS/uL
  ABSOLUTE MONOCYTE: 340.67 CELLS/uL
  ABSOLUTE SEGMENTED NEUTROPHIL: 2070 CELLS/uL
  BASOPHIL: 0%
  EOSINOPHIL: 1.33%
  ERYTHROCYTE COUNT: 5.16 x10E6/uL
  HEMATOCRIT: 31.83%
  HEMOGLOBIN: 11.8 G/DL
  LEUKOCYTE COUNT: 12.07 x10E3/uL
  LYMPHOCYTE: 79.33%
  MEAN CORPUSCULAR HEMOGLOBIN: 22.87 pg
  MEAN CORPUSCULAR HEMOGLOBIN CONCENTRATION: 37.07 G/DL
  MEAN CORPUSCULAR VOLUME: 61.67 fL
  MONOCYTE: 2.67%
  NEUTROPHIL: 16.67%
  NUCLEATED RED BLOOD CELLS: 0 /100WBC
  PLATELET COUNT: 549 x10E3/uL
  ALANINE AMINOTRANSFERASE: 65.67 u/L
  ALBUMIN: 4.2 G/DL
  ALKALINE PHOSPHATASE: 368.67 u/L
  ASPARTATE AMINOTRANSFERASE: 251.67 u/L
  BLOOD UREA NITROGEN: 15.33 mg/dL
  CARBON DIOXIDE: 30.33 mmol/L
  CHLORIDE: 100.67 MEQ/L
  CHOLESTEROL: 75.67 mg/dL
  CREATININE: 0.22 mg/dL
  GLUCOSE: 192.33 mg/dL
  LACTATE DEHYDROGENASE: 377.67 u/L
  LIPASE: 9 u/L
  PHOSPHORUS: 12.03 mg/dL
  POTASSIUM: 5.96 MEQ/L
  SODIUM: 144.97 MEQ/L
  TOTAL BILIRUBIN: 0.23 mg/dL
  TOTAL PROTEIN: 6.1 G/DL
  URIC ACID: 1.2 mg/dL

Reference: ChEMBL document CHEMBL3885881, “DrugMatrix”
